Data taken from article PMC5352783, “Characterization and cytotoxic effect of aqua-(2,2′,2′′-nitrilotriacetato)-oxo-vanadium salts on human osteosarcoma cells” (Biometals, 2017).
Read-outs that look alike come from different tables or passages of the source. Marks after values point to notes of the source that are not given here.

Key:
DNA = details: comparison of the three VO-oda compounds; cited from earlier work
[1] = system: UMR106 derived from rat osteosarcoma cells; details: cited from earlier work; for Cytotoxicity, normal versus tumoral osteoblasts: MC3T3E1 (normal) versus UMR106 (tumoral); for Cellular proliferation: UMR106
[2] = system: MC3T3E1 derived from mouse calvaria; details: cited from earlier work
[3] = system: streptozotocin-induced (STZ) diabetic rats; set-up: method as in Thompson and Orvig [2006]; details: oral, ref Thompson and Orvig [2006]; cited from earlier work
[4] = Potentiometric titration, equilibrium constants of complex species in aqueous solution; assay type: physicochemical; details: for Logarithm of equilibrium constant, reaction 1: A + H3O^+ ⇋ AH^+ + H2O (AH^+ = bpyH^+ or phenH^+) / Logarithm of equilibrium constant, reaction 2 ([drawing 1]) / Logarithm of equilibrium constant, reaction 3 ([drawing 2]): 298.15 K, ionic strength 0.1 M NaClO4, standard deviation in parentheses
Protocol: Potentiometric titrations were performed at 298.15 K by using Cerko Lab System microtitration unit fitted with 5‐mL Hamilton’s syringe and pH‐combined electrode (Schott‐BlueLine 16 pH type) All details for the measuring devices and the experimental setup were described in (Wyrzykowski et al. [2014]). The ionic strength was maintained at 0.1 M using NaClO4. The 6 mM [bpyH][VO(nta)(H2O)]H2O and [phenH][VO(nta)(H2O)](H2O)0.5 solutions (Vo = 5.0 mL) were potentiometrically titrated with a standardized NaOH solution (0.098 M). The concentration distribution of various complex species existing in the solution as a function of pH was obtained using the HySS program (Alderighi et al. [1999]).
The potentiometric titration method has been applied for studying the stability of [bpyH][VO(nta)(H2O)]H2O and [phenH][VO(nta)(H2O)](H2O)0.5 in aqueous solutions. The logarithm of the overall equilibrium constants of the complex species (Table 5) were refined by least-squares calculations using the Hyperquad2008 (ver. 5.2.19) computer program (Gans et al. [1996]).

[5] = system: human osteosarcoma cell (HOS); test: BrdU test, cell proliferation; assay type: cell-based; details: 48 h
Protocol: (§1) The cell lines: two human osteosarcoma cell lines (MG-63 and HOS) and untransformed hFOB were used to assess an anti-proliferative and cytotoxic effect, respectively. hFOB cells were grown in a mixture of Dulbecco’s Modified Eagle’s Medium and Ham F12 medium (1:1 ratio), MG-63 and HOS in Eagle’s Minimum Essential Medium also containing sodium pyruvate 110 mg/L and supplemented with 10% fetal bovine serum, 6 μg/mL penicillin-G, and 10 μg/mL streptomycin.
(§2) Cultured cancer cells with 80–90% confluence were used for plating. The adherent cells were trypsinized to detach cells. 100 µL of cells were seeded into each well of the 96-wells plates (1–5 × 10^4 cells per well). The plate was maintained at 37 °C in a incubator for 48 h until 80–90% confluence. Then, old media were discarded and the cells were treated with tested compounds and cisplatin as positive control. The concentrations of investigated compounds used in experiments were carefully selected according to the results obtained from a preliminary concentration–response study (data not shown). […] Fresh solutions of cisplatin were made up for each experiment owing to its instability in water. […]
Fig. 9 The inhibition of the human osteosarcoma cell (HOS) proliferation after an incubation with investigated compounds assessed with the BrdU-test. […] Data are expressed as mean values ± SD from three experiments. ***p < 0.001 versus control

[6] = system: human osteosarcoma cell (MG-63); test: BrdU test, cell proliferation; assay type: cell-based; details: 48 h
Protocol: as §1, §2
Fig. 8 The inhibition of the human osteosarcoma cell (MG-63) proliferation after an incubation with investigated compounds assessed with the BrdU-test. […] Data are expressed as mean values ± SD from three experiments. ***p < 0.001 versus control

[7] = at 25 °C; cited from earlier work
[8] = system: tumoral cell lines of human origin; set-up: method as in Evangelou [2002]; D’Cruz and Uckun [2002]; Dong et al. [2000]; details: leukemia, breast, ovarian, prostate and testicular cancer cells; ref Evangelou [2002]; D’Cruz and Uckun [2002]; Dong et al. [2000]; cited from earlier work
human osteosarcoma cells = system: human osteosarcoma cells; set-up: method as in Yodoshi et al. [2007]; details: rank among the three VO-oda compounds; ref Yodoshi et al. [2007]; cited from earlier work
[9] = system: animal and human cancer cell lines; set-up: method as in earlier work; details: ref Havelek et al. [2012]; Vinklarek et al. [2004]; Gleeson et al. [2009]; Palackova et al. [2007]; cited from earlier work

O=C([O-])COCC(=O)[O-].[O]=[V+2] [VO(oda)]
DNA cleavage (nuclease activity) (DNA): similar
Cytotoxicity, normal versus tumoral osteoblasts ([1]; ref Rivadeneira et al. [2010]): stronger in the normal (MC3T3E1) than in the tumoral (UMR106) osteoblasts
Cellular proliferation ([1]; ref Rivadeneira et al. [2010]): inhibition of a cellular proliferation
Cellular proliferation ([2]; ref Rivadeneira et al. [2010]): inhibition of a cellular proliferation

CCc1occc(=O)c1[O][V](=[O])[O]c1c(CC)occc1=O [BEOV, VO(Etmaltolato)2]
Effect on plasma glucose levels [3]: lower plasma glucose levels

O=C([O-])COCC(=O)[O-].[O]=[V+2].c1ccc(-c2ccccn2)nc1 [VO(oda)(bpy)]
DNA cleavage (nuclease activity) (DNA): similar
Cytotoxicity, normal versus tumoral osteoblasts ([1]; ref León et al. [2012b]): statistically stronger in the tumoral cells

O.O=C([O-])CN(CC(=O)[O-])CC(=O)[O-].[O]=[V+2].c1cnc2c(c1)ccc1ccc[nH+]c12 [[phenH][VO(nta)(H2O)](H2O)0.5]
Logarithm of equilibrium constant, reaction 1: A + H3O^+ ⇋ AH^+ + H2O (AH^+ = bpyH^+ or phenH^+) [4]: 5.00 (0.04)^a
Logarithm of equilibrium constant, reaction 2 ([drawing 1]) [4]: 7.93 (0.07)
Logarithm of equilibrium constant, reaction 3 ([drawing 2]) [4]: −19.91 (0.08)
Anti-proliferative activity (BrdU incorporation) ([5]; 1-100 μM): most effective anti-proliferative activity
Anti-proliferative activity compared with cis-Pt(NH3)2Cl2 ([5]; BrdU test): significantly higher
Anti-proliferative activity (BrdU incorporation) ([6]; 1-100 μM): most effective anti-proliferative activity
Anti-proliferative activity compared with cis-Pt(NH3)2Cl2 ([6]; BrdU test): significantly higher

O.O=C([O-])CN(CC(=O)[O-])CC(=O)[O-].[O]=[V+2] [[VO(nta)(H2O)]^−]
pH up to which the aqua complex is stable ([4]; aqueous solution, species distribution from the equilibrium constants): ≤ 5

cis-Pt(NH3)2Cl2 [cisplatin]
water solubility [7]: 0.253 g/100 mL

Cc1ccnc2c1ccc1c(C)ccnc12.Cc1ccnc2c1ccc1c(C)ccnc12.O=S(=O)([O-])[O-].[O]=[V+2] [Metvan]
Apoptosis [8]: induces apoptosis

O=C([O-])COCC(=O)[O-].[O]=[V+2].c1cnc2c(c1)ccc1cccnc12 [VO(oda)(phen)]
Antitumor action (human osteosarcoma cells): most potent antitumor action
DNA cleavage (nuclease activity) (DNA): stronger effect
Cytotoxicity, normal versus tumoral osteoblasts ([1]; ref León et al. [2012b]): stronger in the normal than in the tumoral osteoblasts
Cellular proliferation ([1]; ref León et al. [2012b]): inhibition of the cellular proliferation
Cellular proliferation ([2]; ref León et al. [2012b]): inhibition of the cellular proliferation

Cc1occc(=O)c1[O-].Cc1occc(=O)c1[O-].[O]=[V+2] [BMOV, VO(maltolato)2]
Effect on plasma glucose levels [3]: lower plasma glucose levels

2,2′-bipyridinium aqua-(2,2′,2′′-nitrilotriacetato)-oxo-vanadium monohydrate [[bpyH][VO(nta)(H2O)]H2O]
Logarithm of equilibrium constant, reaction 1: A + H3O^+ ⇋ AH^+ + H2O (AH^+ = bpyH^+ or phenH^+) [4]: 4.47 (0.03)^a
Logarithm of equilibrium constant, reaction 2 ([drawing 1]) [4]: 7.80 (0.06)
Logarithm of equilibrium constant, reaction 3 ([drawing 2]) [4]: −19.94 (0.06)

[Cl-].[Cl-].[V+4].c1cc[cH-]c1.c1cc[cH-]c1 [[VCp2Cl2], bis(cyclopentadienyl) dichloro-V(IV)]
In vitro activity against cancer cell lines [9]: high in vitro activity
